According to patent publication EP4582413A1, “ARYLTETRAHYDROPYRIDINE COMPOUND AND PEST CONTROL AGENT” (priority 2022, dated 2024):

What was measured:
Format in all cases: in vivo
[1] = test system: western flower thrips (Frankliniella occidentalis); experiment: Insecticidal activity against western flower thrips; conditions: Frankliniella occidentalis, 48 h; 500 ppm chemical solution sprinkled (2.5 mg/cm^2), larvae on common bean leaf, after 2 days; read-out: death rate
Protocol: Wet filter paper was laid on each styrol cup having an inner diameter of 7 cm, and a common bean leaf cut into a 3 cm square was placed thereon, and inoculated with 20 western flower thrips (Frankliniella occidentalis) larvae. A 10% by mass emulsion of the presently invented compound prepared according to the above formulation example for an emulsion was diluted with water containing a spreader to prepare a chemical solution having a concentration of 500 ppm. For each styrol cup, 2.5 ml of the chemical solution prepared was sprinkled (2.5 mg/cm^2) with a rotary tower sprinkler. […] The test was carried out in duplicate.

[2] = test system: brown rice planthoppers (Nilaparvata lugens); experiment: Insecticidal test for brown rice planthoppers; conditions: Nilaparvata lugens, 144 h; 500 ppm chemical solution, rice leaf sheaths soaked, third-instar larvae, six days, 25°C; read-out: death rate
Protocol: A 10% by mass emulsion of the presently invented compound prepared according to the above formulation example for an emulsion was diluted with water containing a spreader to prepare a chemical solution having a concentration of 500 ppm. Rice leaf sheaths were soaked in the chemical solution for approximately 10 seconds. After the completion of the soaking operation, the rice leaf sheaths treated with the chemical solution were air-dried, and then put in test tubes. Into each test tube, five third-instar brown rice planthoppers (Nilaparvata lugens) larvae were released, and the test tubes were capped with sponge and accommodated in a thermostatic room at 25°C. Six days after the accommodation, the number of dead brown rice planthoppers individuals in the test tubes were examined, and the death rate was calculated from a calculation formula shown below. The test was carried out in duplicate. [formula]

[3] = test system: cat fleas (Ctenocephalides felis); experiment: whole plant or invertebrate; conditions: 72 h, read-out: death rate
Protocol: In 1 ml of acetone, 1 mg of the presently invented compound was dissolved to prepare a chemical solution having a concentration of 1000 ppm. The bottom surface and side surface of each glass container having an inner wall surface area of 25 cm^2 were coated with 250 µl of the chemical solution, and acetone was then volatilized to form a thin film of the compound on the inner wall of the glass container.
Into each of the treated glass containers, five cat fleas (Ctenocephalides felis) imagoes (mixed-sex) were released, and the glass containers were capped and accommodated in a thermostatic room at 25°C. Three days after the release, the number of dead flea individuals were examined, and the death rate was calculated from the same calculation formula as in Test Example 1.

[4] = test system: diamondback moths (Plutella xylostella); experiment: Insecticidal test for diamondback moths; conditions: Plutella xylostella, 144 h; 500 ppm chemical solution, leaves soaked, third-instar larvae, six days, 25°C; read-out: death rate
Protocol: A 10% by mass emulsion of the presently invented compound prepared according to the above formulation example for an emulsion was diluted with water containing a spreader to prepare a chemical solution having a concentration of 500 ppm. Chinese olive leaves were soaked in the chemical solution for approximately 10 seconds. After the completion of the soaking operation, the Chinese olive leaves treated with the chemical solution were air-dried, and then put in dishes. Into each dish, five third-instar diamondback moths (Plutella xylostella) larvae were released, and the dishes were capped and accommodated in a thermostatic room at 25°C. […] The test was carried out in duplicate.

SMILES	mortality at 500 µg/mL [1] [%]	mortality at 500 µg/mL [2] [%]	mortality at 10 µg/cm2 [3] [%]	mortality at 500 µg/mL [4] [%]
O=C(Nc1cc(Br)c(F)cn1)C1=C(O)CC(c2cnc(Cl)c(-c3cnccc3F)c2)NC1=O (stereo not drawn) [2-140]	≥ 90	≥ 90	≥ 50	≥ 90
O=C(Nc1cc(Br)ccn1)C1=C(O)CC(c2cnc(Cl)c(-c3cnccc3F)c2)NC1=O (stereo not drawn) [2-144]	≥ 90	≥ 90	≥ 50	≥ 90
O=C(Nc1cnccn1)C1=C(O)CC(c2cnc(Cl)c(-c3cncc(Cl)c3)c2)NC1=O (stereo not drawn) [2-147]	≥ 90	≥ 90	≥ 50	≥ 90
N#Cc1ccc(NC(=O)C2=C(O)CC(c3nc(-c4ccnc(F)c4)no3)NC2=O)cc1 (stereo not drawn) [3-071]	≥ 90	≥ 90	≥ 50	≥ 90
O=C(Nc1ccc(F)cc1)C1=C(O)CC(c2nc(-c3ccc(F)cc3)no2)NC1=O (stereo not drawn) [3-010]	≥ 90	≥ 90	≥ 50	≥ 90
O=C(Nc1ccc(F)cc1)C1=C(O)CC(c2nc(-c3ccncc3)no2)NC1=O (stereo not drawn) [3-031]	≥ 90	≥ 90	≥ 50	≥ 90
O=C(Nc1cnc(Cl)cn1)C1=C(O)CC(c2cnc(Cl)c(-c3ccccc3)c2)NC1=O (stereo not drawn) [2-095]	≥ 90	≥ 90	≥ 50	≥ 90
O=C(Nc1ccc(F)cc1F)C1=C(O)CC(c2nc(-c3ccc(F)cc3F)no2)NC1=O (stereo not drawn) [3-157]	≥ 90	≥ 90	≥ 50	≥ 90
O=C(Nc1cccc(F)n1)C1=C(O)CC(c2nc(-c3ccncc3F)no2)NC1=O (stereo not drawn) [3-238]	≥ 90	≥ 90	≥ 50	≥ 90
O=C(Nc1cccc(F)n1)C1=C(O)CC(c2nc(-c3ccncc3Cl)no2)NC1=O (stereo not drawn) [3-239]	≥ 90	≥ 90	≥ 50	≥ 90
N#Cc1ccc(NC(=O)C2=C(O)CC(c3cnc(Cl)c(-c4ccccc4)c3)NC2=O)cc1 (stereo not drawn) [2-090]	≥ 90	≥ 90	≥ 50	≥ 90
O=C(Nc1ccccn1)C1=C(O)CC(c2nc(-c3snc(Cl)c3Cl)no2)NC1=O (stereo not drawn) [3-263]	≥ 90	≥ 90	≥ 50	≥ 90
O=C(Nc1cc(F)ccn1)C1=C(O)CC(c2nc(-c3ccns3)no2)NC1=O (stereo not drawn) [3-227]	≥ 90	≥ 90	≥ 50	≥ 90
O=C(Nc1ccc(F)cc1)C1=C(O)CC(c2nc(-c3cccnc3)no2)NC1=O (stereo not drawn) [3-007]	≥ 90	≥ 90	≥ 50	≥ 90
O=C(Nc1ccc(F)cc1)C1=C(O)CC(c2nc(-c3ccccn3)no2)NC1=O (stereo not drawn) [3-006]	≥ 90	≥ 90	≥ 50	≥ 90
O=C(Nc1cccc(F)n1)C1=C(O)CC(c2cnc(Cl)c(-c3cnccc3F)c2)NC1=O (stereo not drawn) [2-142]	≥ 90	≥ 90	≥ 50	≥ 90
Cc1ccc(NC(=O)C2=C(O)CC(c3nc(-c4ccc(F)cc4F)no3)NC2=O)nc1 (stereo not drawn) [3-175]	≥ 90	≥ 90	≥ 50	≥ 90
O=C(Nc1cc(Br)cc(F)n1)C1=C(O)CC(c2cnc(Cl)c(-c3cnccc3F)c2)NC1=O (stereo not drawn) [2-138]	≥ 90	≥ 90	≥ 50	≥ 90

SMILES	mortality at 500 µg/mL [1] [%]	mortality at 500 µg/mL [2] [%]	mortality at 10 µg/cm2 [3] [%]	mortality at 500 µg/mL [4] [%]
Cc1cccc(-c2noc(C3CC(O)=C(C(=O)Nc4ccc(F)cc4)C(=O)N3)n2)c1 (stereo not drawn) [3-030]	≥ 90	≥ 90	≥ 50	≥ 90
O=C(Nc1ncccn1)C1=C(O)CC(c2cnc(Cl)c(-c3cnccc3F)c2)NC1=O (stereo not drawn) [2-134]	≥ 90	≥ 90	≥ 50	≥ 90
O=C(Nc1ccc(F)c(F)c1)C1=C(O)CC(c2nc(-c3ccc(F)cc3F)no2)NC1=O (stereo not drawn) [3-161]	≥ 90	≥ 90	≥ 50	≥ 90
O=C(Nc1ccccn1)C1=C(O)CC(c2nc(-c3cccc(F)c3)no2)NC1=O (stereo not drawn) [3-185]	≥ 90	≥ 90	≥ 50	≥ 90
O=C(Nc1ccncn1)C1=C(O)CC(c2cnc(Cl)c(-c3ccc(F)nc3)c2)NC1=O (stereo not drawn) [2-101]	≥ 90	≥ 90	≥ 50	≥ 90
O=C(Nc1ccc(F)cc1)C1=C(O)CC(c2nc(-c3cc(F)cc(F)c3)no2)NC1=O (stereo not drawn) [3-034]	≥ 90	≥ 90	≥ 50	≥ 90
O=C(Nc1nccs1)C1=C(O)CC(c2cnc(Cl)c(-c3ccc(F)cc3)c2)NC1=O (stereo not drawn) [2-235]	≥ 90	≥ 90	≥ 50	≥ 90
O=C(Nc1ccc(F)cc1)C1=C(O)CC(c2nc(-c3cccc(Cl)c3)no2)NC1=O (stereo not drawn) [3-029]	≥ 90	≥ 90	≥ 50	≥ 90
Cc1cccc(-c2cc(C3CC(O)=C(C(=O)Nc4ccc(C#N)cc4)C(=O)N3)cnc2Cl)c1 (stereo not drawn) [2-269]	≥ 90	≥ 90	≥ 50	≥ 90
N#Cc1ccc(NC(=O)C2=C(O)CC(c3cnc(Cl)c(-c4ccc(F)nc4)c3)NC2=O)cn1 (stereo not drawn) [2-013]	≥ 90	≥ 90	≥ 50	≥ 90
O=C(Nc1ccc(F)cc1)C1=C(O)CC(c2nc(-c3ccccc3F)no2)NC1=O (stereo not drawn) [3-012]	≥ 90	≥ 90	≥ 50	≥ 90
O=C(Nc1ccc(F)cc1)C1=C(O)CC(c2nc(-c3cncc(F)c3)no2)NC1=O (stereo not drawn) [3-021]	≥ 90	≥ 90	≥ 50	≥ 90
O=C(Nc1ccccn1)C1=C(O)CC(c2nc(-c3ccnc(F)c3)no2)NC1=O (stereo not drawn) [3-065]	≥ 90	≥ 90	≥ 50	≥ 90
O=C(Nc1ccc(Cl)nc1)C1=C(O)CC(c2cnc(Cl)c(-c3ccccc3)c2)NC1=O (stereo not drawn) [2-092]	≥ 90	≥ 90	≥ 50	≥ 90
O=C(Nc1ccc(C(F)(F)F)nc1)C1=C(O)CC(c2cnc(Cl)c(-c3ccc(F)nc3)c2)NC1=O (stereo not drawn) [2-012]	≥ 90	≥ 90	≥ 50	≥ 90
O=C(Nc1cc(C(F)(F)F)ccn1)C1=C(O)CC(c2cnc(Cl)c(-c3cnccc3F)c2)NC1=O (stereo not drawn) [2-145]	≥ 90	≥ 90	≥ 50	≥ 90
O=C(Nc1ncccc1Br)C1=C(O)CC(c2nc(-c3cnccc3F)no2)NC1=O (stereo not drawn) [3-233]	≥ 90	≥ 90	≥ 50	≥ 90
O=C(Nc1ccc(F)cc1)C1=C(O)CC(c2nc(-c3ccccc3)no2)NC1=O (stereo not drawn) [3-001]	≥ 90	≥ 90	≥ 50	≥ 90
